Laboratory results from PMC10850145, “Hormonal steroids induce multidrug resistance and stress response genes in Neisseria gonorrhoeae by binding to MtrR” (Nature Communications, 2024).
“And” between values parts separate entries of the source, which are not always exact repeats. Equal values may be shown once. “Also recorded” adds a separate entry of the source.

Experiments:
MtrR [1] = target: T1, MtrR (Neisseria gonorrhoeae, UniProt P39897); test: Isothermal titration calorimetry, ligand binding to MtrR WT; conditions: ITC
T1 construct: Hexa-histidine tag with TEV protease cleavage site (N, cleaved yes); made in house; host or cells: E. coli Rosetta Gami B(DE3) pLysS
T1 sequence (P39897 whole entry): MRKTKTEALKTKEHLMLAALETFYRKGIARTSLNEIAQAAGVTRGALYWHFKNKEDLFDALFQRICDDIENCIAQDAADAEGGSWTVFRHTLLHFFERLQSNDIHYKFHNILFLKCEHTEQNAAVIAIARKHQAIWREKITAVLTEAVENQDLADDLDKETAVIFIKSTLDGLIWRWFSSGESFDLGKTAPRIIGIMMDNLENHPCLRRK

MtrR [2] = target: T1, MtrR; set-up: method as in PMID 31331979; conditions: cited from earlier work
ngo1249-lacZ expression = test: β-galactosidase assay, ngo1249-lacZ fusion (negative control gene); conditions: WT-NGO1249-lacZ, 100 µM hormone
MtrR W136A = target: T2, MtrR W136A (Neisseria gonorrhoeae, UniProt P39897, W136A); test: biochemical; format: binding; conditions: ITC
T2 construct: Hexa-histidine tag with TEV protease cleavage site (N, cleaved yes); made in house; host or cells: E. coli Rosetta Gami B(DE3) pLysS
T2 sequence (P39897 whole entry W136A): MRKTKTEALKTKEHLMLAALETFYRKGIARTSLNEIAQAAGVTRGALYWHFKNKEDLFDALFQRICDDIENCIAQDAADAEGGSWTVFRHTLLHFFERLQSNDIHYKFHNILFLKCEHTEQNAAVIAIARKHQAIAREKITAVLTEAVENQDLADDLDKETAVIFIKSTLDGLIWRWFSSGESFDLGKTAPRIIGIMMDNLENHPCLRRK

MtrR D171A = target: T3, MtrR D171A (Neisseria gonorrhoeae, UniProt P39897, D171A); test: biochemical; format: binding; conditions: ITC
T3 construct: Hexa-histidine tag with TEV protease cleavage site (N, cleaved yes); made in house; host or cells: E. coli Rosetta Gami B(DE3) pLysS
T3 sequence (P39897 whole entry D171A): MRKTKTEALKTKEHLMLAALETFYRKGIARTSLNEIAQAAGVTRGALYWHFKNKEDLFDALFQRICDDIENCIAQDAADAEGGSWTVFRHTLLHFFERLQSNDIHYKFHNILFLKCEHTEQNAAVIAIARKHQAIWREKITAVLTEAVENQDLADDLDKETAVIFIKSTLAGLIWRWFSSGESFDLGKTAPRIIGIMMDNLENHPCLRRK

[3] = target: T4, MtrR binding to rpoH operator (27mer) (Neisseria gonorrhoeae, UniProt P39897); test: Plate-based fluorescence polarization DNA-binding assay, rpoH operator; conditions: for fluorescence polarization, plate-based MtrR titration: rpoH 27mer + 125µM
T4 construct: Hexa-histidine tag with TEV protease cleavage site (N, cleaved yes); made in house; host or cells: E. coli Rosetta Gami B(DE3) pLysS
T4 sequence (P39897 whole entry): as the sequence (P39897 whole entry) above
Protocol: (§1) To analyze the effect of ethinyl estradiol on DNA binding by MtrR, fluorescence polarization DNA-binding data were collected in 96-well plates (Costar #3915 black, flat bottom). with a SpectraMax M5e Microplate Reader (Molecular Devices) and analyzed with Prism (Graphpad Software, version 10.0.0). Purified MtrR was buffer exchanged into “DNA” binding buffer (150 mM NaCl, 20 mM Tris-HCl pH 7.5, 2.5% glycerol, 1 mM TCEP). […] The binding affinity of protein for DNA was determined using the Morrison’s quadratic equation[72]. BSA and dI-dC are included as carriers and to control for nonspecific DNA binding. Samples were excited at 485 nm and polarized emissions measured at 525 nm, with a 515 nm cutoff. Controls were run with no protein (DNA ± methanol, ethinyl estradiol) to ensure that millipolarization values were not affected by experimental conditions alone. At least three independent experimental measurements were averaged for each reported binding constant.
(§2) Figure S2: Presence of Ethinyl Estradiol influences binding of MtrR to rpoH and mtrCDE operators. Plate based Fluorescence polarization DNA-binding isotherms reveal decreases in the binding affinity of MtrR for the rpoH and mtrCDE operators in the presence of ethinyl estradiol.
(§3) Experiments were run on the three independent experimental measurements were averaged for each reported binding constant. Data are represented by the mean values (point) +/- SEM (error

[4] = target: T5, MtrR binding to mtrCDE operator (21mer) (Neisseria gonorrhoeae, UniProt P39897); test: Plate-based fluorescence polarization DNA-binding assay, mtrCDE operator; conditions: mtrCDE 21mer + 125µM
T5 construct: Hexa-histidine tag with TEV protease cleavage site (N, cleaved yes); made in house; host or cells: E. coli Rosetta Gami B(DE3) pLysS
T5 sequence (P39897 whole entry): as above
Protocol: as §1, §2, §3

mtrC-lacZ expression = format: cell-based, Neisseria gonorrhoeae; conditions: only when strain produced wild-type MtrR
rpoH-lacZ expression = format: cell-based, Neisseria gonorrhoeae; conditions: only when strain produced wild-type MtrR

CC(C)CCC[C@@H](C)[C@H]1CC[C@H]2[C@@H]3CC=C4C[C@@H](O)CC[C@]4(C)[C@H]3CC[C@]12C [cholesterol]
binding to MtrR WT (MtrR [1]): no binding

C[C@]12CCC(=O)C=C1CC[C@@H]1[C@@H]2[C@@H](O)C[C@@]2(C)[C@H]1CC[C@]2(O)C(=O)CO [cortisol]
binding to MtrR WT (MtrR [1]): no binding

C[C@H](CCC(=O)NCCS(=O)(=O)O)[C@H]1CC[C@H]2[C@@H]3CC[C@@H]4C[C@H](O)CC[C@]4(C)[C@H]3C[C@H](O)[C@]12C [taurodeoxycholate]
MtrR binding and induction (MtrR [2]): binds and is induced by

CC12CCC3c4ccc(O)cc4CCC3C1CCC2O (stereo not drawn) [Beta-Estradiol]
Mean Miller units (ngo1249-lacZ expression): 4.6 Miller units

CC[C@H]1OC(=O)[C@H](C)[C@@H](O[C@H]2C[C@@](C)(OC)[C@@H](O)[C@H](C)O2)[C@H](C)[C@@H](O[C@@H]2O[C@H](C)C[C@H](N(C)C)[C@H]2O)[C@](C)(O)C[C@@H](C)CN(C)[C@H](C)[C@@H](O)[C@]1(C)O [azithromycin]
binding to MtrR WT (MtrR [1]): no binding; also recorded: does not bind

C#C[C@]1(O)CC[C@H]2[C@@H]3CCc4cc(O)ccc4[C@H]3CC[C@@]21C [Ethinyl Estradiol, ethinyl estradiol]
binding stoichiometry N (ligand per MtrR) (MtrR [1]): ~ 1
Kd (MtrR [1]; 25 °C, 1% MeOH, read-out: equilibrium dissociation constant (Kd), MtrR WT): 0.94 µM and ~0.94 µM
binding to MtrR W136A compared with wild type (MtrR W136A): tolerates binding
binding to MtrR D171A (MtrR D171A): no observable binding
change in binding affinity of MtrR for rpoH operator ([3]; presence of ethinyl estradiol, 125 µM): decreases in
fluorescence polarization, plate-based MtrR titration ([3]; MtrR WT dimer 0 nM): 0 mP
fluorescence polarization, plate-based MtrR titration ([3]; MtrR WT dimer 9.4 nM): 5 mP and 3 mP and 4 mP
fluorescence polarization, plate-based MtrR titration ([3]; MtrR WT dimer 25 nM): 10 mP and 5 mP
fluorescence polarization, plate-based MtrR titration ([3]; MtrR WT dimer 37.5 nM): 12 mP and 10 mP and 16 mP
fluorescence polarization, plate-based MtrR titration ([3]; MtrR WT dimer 50 nM): 21 mP and 17 mP and 16 mP
fluorescence polarization, plate-based MtrR titration ([3]; MtrR WT dimer 75 nM): 25 mP and 18 mP and 24 mP
fluorescence polarization, plate-based MtrR titration ([3]; MtrR WT dimer 100 nM): 29 mP and 24 mP
fluorescence polarization, plate-based MtrR titration ([3]; MtrR WT dimer 150 nM): 36 mP and 29 mP and 33 mP
fluorescence polarization, plate-based MtrR titration ([3]; MtrR WT dimer 200 nM): 40 mP and 31 mP and 33 mP
fluorescence polarization, plate-based MtrR titration ([3]; MtrR WT dimer 300 nM): 44 mP and 39 mP and 40 mP
fluorescence polarization, plate-based MtrR titration ([3]; MtrR WT dimer 400 nM): 48 mP and 37 mP and 40 mP
fluorescence polarization, plate-based MtrR titration ([3]; MtrR WT dimer 600 nM): 50 mP and 42 mP and 51 mP
fluorescence polarization, plate-based MtrR titration ([3]; MtrR WT dimer 800 nM): 50 mP and 44 mP and 53 mP
fluorescence polarization, plate-based MtrR titration ([4]; MtrR WT dimer 0 nM): 0 mP
fluorescence polarization, plate-based MtrR titration ([4]; MtrR WT dimer 37.5 nM): 6 mP and 5 mP
fluorescence polarization, plate-based MtrR titration ([4]; MtrR WT dimer 75 nM): 9 mP and 8 mP and 10 mP
fluorescence polarization, plate-based MtrR titration ([4]; MtrR WT dimer 100 nM): 11 mP and 12 mP
fluorescence polarization, plate-based MtrR titration ([4]; MtrR WT dimer 150 nM): 12 mP and 15 mP and 13 mP
fluorescence polarization, plate-based MtrR titration ([4]; MtrR WT dimer 200 nM): 18 mP and 21 mP and 16 mP
fluorescence polarization, plate-based MtrR titration ([4]; MtrR WT dimer 300 nM): 28 mP and 21 mP
fluorescence polarization, plate-based MtrR titration ([4]; MtrR WT dimer 400 nM): 26 mP and 30 mP and 27 mP
fluorescence polarization, plate-based MtrR titration ([4]; MtrR WT dimer 600 nM): 31 mP and 27 mP and 29 mP
fluorescence polarization, plate-based MtrR titration ([4]; MtrR WT dimer 800 nM): 33 mP and 36 mP and 34 mP
induction of mtrC expression (mtrC-lacZ expression): could induce expression
induction of rpoH expression (rpoH-lacZ expression): could induce expression

C[C@H](CCC(=O)O)[C@H]1CC[C@H]2[C@@H]3[C@H](O)C[C@@H]4C[C@H](O)CC[C@]4(C)[C@H]3CC[C@]12C [chenodeoxycholate]
MtrR binding and induction (MtrR [2]): binds and is induced by
